Measured values reported in US12440525B2 (priority 2017, dated 2025).
Counter-ions that a name gives are not always drawn. Like-named read-outs stand apart in the source and are kept apart here.

How the values were obtained:
VSVΔ51 [1] = format: cell-based, Vesicular stomatitis virus
VSVΔ51 [2] = format: cell-based, Vesicular stomatitis virus; remark: listed apart in the source
STAT1 [3] = format: cell-based, human
VSVΔ51 [4] = format: cell-based, Vesicular stomatitis virus; remark: listed apart in the source
HSV-1 mutant N212 = format: cell-based, herpes simplex virus
Sindbis virus = format: cell-based
E1A-deleted Ad5 = format: cell-based, adenovirus serotype 5
VSVΔ51 [5] = format: cell-based, Vesicular stomatitis virus; remark: listed apart in the source
786-0 cells = format: cell-based, human
CT26WT cells = format: cell-based, murine
B16F10 cells = format: cell-based, murine
VSVΔ51 [6] = format: cell-based, Vesicular stomatitis virus; remark: listed apart in the source
VSVΔ51 [7] = format: cell-based, Vesicular stomatitis virus; remark: listed apart in the source
VSVΔ51 [8] = format: cell-based, Vesicular stomatitis virus; remark: listed apart in the source
VSVΔ51 [9] = format: cell-based, Vesicular stomatitis virus; remark: listed apart in the source
CT26WT tumors = details: mouse, in vivo
B16F10 tumors = details: mouse, in vivo
HT29 tumors = details: mouse, in vivo
STAT1 [10] = format: cell-based, human; remark: listed apart in the source
STAT2 = format: cell-based, human
IFITM1 = format: cell-based, human
VSV-viral proteins = format: cell-based, Vesicular stomatitis virus
wild-type VSV (wtVSV) = format: cell-based, Vesicular stomatitis virus
VSVΔ51 [11] = format: cell-based, Vesicular stomatitis virus; remark: listed apart in the source
wtVSV = format: cell-based, Vesicular stomatitis virus
VSVΔ51 [12] = format: cell-based, Vesicular stomatitis virus; remark: listed apart in the source
NF-κB subunit p65 = format: cell-based, human
[13] = test system: replication incompetent lentivirus; format: cell-based

For `CCOC(=O)/C=C/C(=O)OCC` [DEF, diethyl fumarate], the “VSVΔ51 infection, spread, and oncolysis” value (VSVΔ51 [1]) was “robustly enhanced” and the “VSVΔ51 infection, spread, and oncolysis” value (VSVΔ51 [2]) was “robustly enhanced”.

`CCOC(=O)/C=C\C(=O)OCC` [DEM, diethyl maleate] was tested, and the “VSVΔ51 infection, spread, and oncolysis” value (VSVΔ51 [1]) was “robustly enhanced”, the “VSVΔ51 infection, spread, and oncolysis” value (VSVΔ51 [2]) was “robustly enhanced” and the “STAT1 phosphorylation in cells conditioned with IFNβ” value (STAT1 [3]) was “inhibited STAT1 phosphorylation”.

With `COC(=O)/C=C/C(=O)OC` [DMF, dimethyl fumarate] the “Virus-encoded GFP expression” value (VSVΔ51 [1]) was “greatly enhanced”, the “increase of VSVΔ51 virus growth” value (VSVΔ51 [1]) was “more than 100 fold” and the “infection of VSVΔ51” value (VSVΔ51 [1]) was “enhanced infection”. For the same compound, the “pre-treatment time prior to infection at which the enhancing effect was observed” value (VSVΔ51 [1]) was “up to 24 hours”, the “time post-infection of treatment at which the enhancing effect was observed” value (VSVΔ51 [1]) was “up to 8 hours” and the “viral output of VSVΔ51, growth curve at low MOI” value (VSVΔ51 [1]) was “enhanced the viral output”. The “VSVΔ51 infection in panel of cancer cell lines” value (VSVΔ51 [4]) was “robustly enhanced infection”, the “viral output of oncolytic herpes virus” value (HSV-1 mutant N212) was “improved viral output” and the “viral output of Sindbis virus” value (Sindbis virus) was “improved viral output”. For the same compound, the “increase of luciferase transgene expression” value (E1A-deleted Ad5) was “up to 20 fold”, the “average plaque diameter of VSVΔ51” value (VSVΔ51 [5]) was “substantially increased” and the “cell viability, combined treatment with VSVΔ51” value (“cell viability … with VSVΔ51” for short) (786-0 cells) was “synergistic decrease in cell viability”. For the same compound, the “cell viability … with VSVΔ51” value (CT26WT cells) was “synergistic decrease in cell viability”, the “cell viability … with VSVΔ51” value (B16F10 cells) was “synergistic decrease in cell viability” and the “virus growth in normal tissue cores” value (VSVΔ51 [6]) was “did not increase virus growth”. For the same compound, the “increase of VSVΔ51 infection ex vivo in primary human tumor samples” value (VSVΔ51 [7]) was > 10 fold, the “VSVΔ51 infection in patient-derived cancer cell lines” value (VSVΔ51 [8]) was “increased VSVΔ51 infection” and the “virus growth in human normal tissues” value (VSVΔ51 [9]) was “did not improve virus growth”. The “challenge of cured mice with a foreign tumor” value (CT26WT tumors) was “grew 4T1 tumors at a similar rate as the naive mice”, the “mice with complete remission, combination therapy” value (CT26WT tumors) was “approximately 20%” and the “re-challenge of cured mice with the same cancer cells” value (CT26WT tumors) was “immune to re-challenge”. The “survival, combination therapy compared with either monotherapy” value (“survival … compared with either monotherapy” for short) (CT26WT tumors) was “significantly prolonged survival”, the “tumor progression, combination therapy DMF + VSVΔ51” value (CT26WT tumors) was “considerable delay in tumor progression” and the “virus-associated luciferase gene expression in tumors” value (CT26WT tumors) was “enhanced virus-associated luciferase gene expression”. For the same compound, the “mice with complete remission, combination therapy” value (B16F10 tumors) was “approximately 20%”, the “survival … compared with either monotherapy” value (B16F10 tumors) was “significantly prolonged survival” and the “tumor progression, combination therapy DMF + VSVΔ51” value (B16F10 tumors) was “considerable delay in tumor progression”. For the same compound, the “survival … compared with either monotherapy” value (HT29 tumors) was “significantly prolonged survival”, the “tumor progression, combination therapy DMF + VSVΔ51” value (HT29 tumors) was “considerable delay in tumor progression” and the “virus-associated luciferase gene expression in tumors” value (HT29 tumors) was “enhanced virus-associated luciferase gene expression”. For the same compound, the “activation (phosphorylation) of STAT1” value (STAT1 [10]) was “decreased activation (phosphorylation)”, the “activation (phosphorylation) of STAT2” value (STAT2) was “decreased activation (phosphorylation)” and the “expression levels of the antiviral protein IFITM1” value (IFITM1) was “potently repressed”. For the same compound, the VSV-viral proteins (VSV-viral proteins) was “increased”, the “infection of 786-0 cells by wild-type VSV” value (wild-type VSV (wtVSV)) was “no impact on infection” and the “protective (suppressive) effect of VSVΔ51ΔG-infected cell supernatant on subsequent infection” value (VSVΔ51 [11]) was “completely overcome this suppressive effect”. For the same compound, the “protective (suppressive) effect of VSVΔ51ΔG-infected cell supernatant on subsequent infection” value (wtVSV) was “completely overcome this suppressive effect”, the “antiviral effects of Type I IFN pretreatment on VSVΔ51 infection” value (VSVΔ51 [12]) was “antagonized the antiviral effects” and the “STAT1 phosphorylation in cells conditioned with IFNβ” value (STAT1 [3]) was “inhibited STAT1 phosphorylation”. For the same compound, the “phosphorylation and translocation of NF-κB subunit p65 upon TNFα stimulation” value (NF-κB subunit p65) was “inhibits phosphorylation and translocation” and the “phosphorylation and translocation of NF-κB subunit p65 upon infection” value (NF-κB subunit p65) was “inhibits phosphorylation and translocation”.

For `COC(=O)/C=C\C(=O)OC` [DMM, dimethyl maleate], the “VSVΔ51 infection, spread, and oncolysis” value (VSVΔ51 [1]) was “robustly enhanced” and the “VSVΔ51 infection, spread, and oncolysis” value (VSVΔ51 [2]) was “robustly enhanced”.

`COC(=O)CCC(=O)OC` [DMS, dimethyl succinate] was tested, and the “viral output of VSVΔ51” value (VSVΔ51 [1]) was “no impact on viral output”.

With `O=C(O)/C=C/C(=O)O` [FA, fumaric acid] the “infection of VSVΔ51 / viral growth” value (VSVΔ51 [1]) was “no impact on viral growth”.

`COC(=O)/C=C/C(=O)O` [MMF, monomethyl fumarate] was tested, and the “increase in lentivirus yield” value [13] was 2.4 fold.
